# Experimental data published in patent publication US20240199728A1, “METHODS OF TREATING OBESITY, DIABETES, AND LIVER DYSFUNCTION” (REGENERON PHARMACEUTICALS, INC., priority 2022, published 2024).
# Legend:
# Assay type in all cases: in vivo
# [1] = system: diet-induced obesity (DIO) mouse model; assay: Body weight and body composition (MRI) over time in diet-induced obesity (DIO) mouse model; parameters: Body weight changes over time, Mean / Lean mass changes over time, Mean / Fat mass changes over time, Mean: unit not given here; conditions: DIO mice; for Fat mass changes over time, Mean / Lean mass changes over time, Mean: MRI
# Description: (§1) DIO mice that have been fed a high fat diet for at least 20 weeks were distributed into 4 different groups balanced by body fat content as determined by MRI and blood glucose. On day 0, all mice were implanted with osmotic pumps (Alzet, Cat #2004), in which the stainless steel flow moderators were replaced with PEEK tubing (DURECT Corporation, Cat #0002496) to allow for MRI measurements during the experiment. Pumps for groups 1 and 2 contained PBS, while pumps used for groups 3 and 4 contained Semaglutide (0.833 mg/mL for […] infusion). The next day (day 1), mice were injected with their respective antibodies: group 1 and group 3: Isotype control (at 20 mg/kg); group 2 and group 4: anti-GDF8 antibody (REGN1033) & anti-Activin A antibody (REGN2477) (at 10 mg/kg each). The antibody injections were repeated on days 4 and 7 and once weekly after that.
# (§2) Body composition using MRI and fed blood glucose using a glucometer from tail bleeds were measured weekly in the morning. Mice were also bled for insulin measurements on a weekly basis. An oral glucose tolerance test (OGTT) was performed on day 23. For the OGTT, mice were fasted for 4 hours, and baseline glucose was measured. Subsequently, 2 g/kg glucose was administered to the mice by oral gavage, and glucose was measured again after 30, 60, 90, and 120 minutes. On day 26, 6 hour fasted blood glucose was measured, and mice were bled for insulin assessment as described above. At the end of the study (day 28/29), mice were sacrificed, and tissue (skeletal muscle, adipose, pancreas, heart, spleen, liver) was collected for weight and further analysis. Mouse plasma was used to measure circulating levels of ALT, AST, non-esterified fatty acids (NEFAs), triglycerides (trigs), and cholesterol (chol) on the Advia Chemistry Analyzer from Siemens. One lobe of the liver was fresh frozen to allow for triglyceride extraction and quantification using standard protocols. Another lobe of the liver and the pancreas were fixed in 10% formalin, embedded in paraffin, and sectioned for liver histology. H&E, as well as smooth muscle actin (SMA), staining was performed, and slides were subjected to quantification using Halo software. Paraffin sections of the pancreas were stained for insulin and glucagon to determine beta cell and alpha cell mass, respectively, using Halo software.
# [2] = system: diet-induced obesity (DIO) mouse model; assay: Oral glucose tolerance test (OGTT) and fasted blood glucose, DIO mice
# Description: as §1
# as §2, with “Subsequently, 2 g/kg glucose was administered to the mice by oral gavage, and glucose was measured again after 30, 60, 90, and 120 minutes.” left out
# [3] = system: diet-induced obesity (DIO) mouse model; assay: Liver triglyceride extraction and liver histology (H&E, SMA staining), DIO mice; conditions: end of study
# Description: as §1, §2
# [4] = system: diet-induced obesity (DIO) mouse model; assay: Final tissue/organ weights at end of study (day 28/29), DIO mice; conditions: control group = 0.00 (FIG. 2B: % change vs. control), in %
# Description: DIO mice that have been fed a high fat diet for at least 20 weeks were distributed into 4 different groups balanced by body fat content as determined by MRI and blood glucose. On day 0, all mice were implanted with osmotic pumps (Alzet, Cat #2004), in which the stainless steel flow moderators were replaced with PEEK tubing (DURECT Corporation, Cat #0002496) to allow for MRI measurements during the experiment. Pumps for groups 1 and 2 contained PBS, while pumps used for groups 3 and 4 contained Semaglutide (0.833 mg/mL for 7 ug/day infusion). […]
# Body composition using MRI and fed blood glucose using a glucometer from tail bleeds were measured weekly in the morning. […] For the OGTT, mice were fasted for 4 hours, and baseline glucose was measured. Subsequently, 2 g/kg glucose was administered to the mice by oral gavage, and glucose was measured again after 30, 60, 90, and 120 minutes. On day 26, 6 hour fasted blood glucose was measured, and mice were bled for insulin assessment as described above. […] One lobe of the liver was fresh frozen to allow for triglyceride extraction and quantification using standard protocols. […] H&E, as well as smooth muscle actin (SMA), staining was performed, and slides were subjected to quantification using Halo software. […]
# [5] = system: obese adult male cyno non-human primate (NHP) with NASH; assay: Obese NHP study of body weight, liver and metabolic effects of adding myostatin/activin A blockade onto GLP-1R agonism; conditions: week 12
# Method: An obese NHP study of the body weight, liver and metabolic effects of adding on myostatin/activin A blockade onto GLP-1R agonism was carried out. FIG. 10 sets forth the study and timeline for obese adult male cyno non-human primate (NHP) with NASH, stratified based on body weight and % body fat, n=10 per arm.
# The treatment groups were: • vehicle; • Semaglutide; • Anti-Myostatin+anti-Activin A; • Semaglutide+anti-Myostatin; and • Semaglutide+anti-Myostatin+anti-Activin A. REGN1033 is an anti-Myostatin antibody, and REGN2477 is an anti-Activin A antibody. The GLP-1 agonist employed was Semaglutide. Semaglutide was administered at 10 μg/kg. Anti-Myostatin antibody was administered at 50 mg/kg. Anti-Activin A antibody was administered at 50 mg/kg.
# Postmenopausal women received 10 mg/kg (anti-myostatin+anti-activin A) IV, Q2W. Thigh muscle volume was measured via MRI, and android fat mass was measured via iDXA, both over 30 weeks. Obese non-human primates received 50 mg/kg anti-myostatin+50 mg/kg anti-activin A (QW). Total lean mass was measured via iDXA, and total fat mass was measured via iDXA, both over 28 weeks. […]
# [6] = system: diet-induced obesity (DIO) mouse model; assay: Fed blood glucose, insulin and glucagon, DIO mice
# Description: as §1, §2
# [7] = system: diet-induced obesity (DIO) mouse model; assay: Plasma ALT, AST, NEFA, triglycerides, cholesterol (Advia Chemistry Analyzer), DIO mice; conditions: end of study, first value of group (mean)
# Description: as §1
# as §2, with “Another lobe of the liver and the pancreas were fixed in 10% formalin, embedded in paraffin, and sectioned for liver histology.” left out, “Paraffin sections of the pancreas were stained for insulin and glucagon to determine beta cell and alpha cell mass, respectively, using Halo software.” left out
substance,measurement,setting,value
Semaglutide,"Body weight changes over time, Mean",[1]; Day 5,−11.33
same,"Body weight changes over time, Mean",[1]; Day 6,−12.46
same,"Body weight changes over time, Mean",[1]; Day 9,−15.25
same,"Body weight changes over time, Mean",[1]; Day 12,−16.20
same,"Body weight changes over time, Mean",[1]; Day 13,−15.72
same,"Body weight changes over time, Mean",[1]; Day 14,−17.49
same,"Body weight changes over time, Mean",[1]; Day 19,−15.74
same,"Body weight changes over time, Mean",[1]; Day 23,−13.16
same,"Body weight changes over time, Mean",[1]; Day 26,−12.53
same,"Body weight changes over time, Mean",[1]; Day −6 (before treatment),0
same,"Fat mass changes over time, Mean",[1]; Day 5,−23.75
same,"Lean mass changes over time, Mean",[1]; Day 5,−3.50
same,"Fat mass changes over time, Mean",[1]; Day 12,−33.78
same,"Lean mass changes over time, Mean",[1]; Day 12,−4.09
same,"Fat mass changes over time, Mean",[1]; Day 19,−34.24
same,"Lean mass changes over time, Mean",[1]; Day 19,−2.43
same,"Lean mass changes over time, Mean",[1]; Day 25,−1.93
same,"Fat mass changes over time, Mean",[1]; Day 26,−29.52
same,"Fat mass changes over time, Mean",[1]; Day −6 (before treatment),0
same,"Lean mass changes over time, Mean",[1]; Day −6 (before treatment),0
same,decrease in body weight as compared with the control group,[1]; vs control group,approximately 14%
same,decrease in lean mass as compared with the control group,[1]; vs control group,3-4%
same,loss in fat mass compared to the control group,[1]; vs control group (Group 1),approximately 18%
same,"Area under the curve of OGTT at day 23, Mean","[2]; 2 g/kg glucose oral gavage, day 23",27698
same,"4 hrs fasted glucose levels at day 23, Mean","[2]; 4 hrs fasted, day 23, in mg/dL (unit assumed)",192.1
same,"6 hrs fasted glucose levels at day 26, Mean","[2]; 6 hrs fasted, day 26, in mg/dL (unit assumed)",172.6
same,"oGTT measurement on day 23 (glucose), Mean",[2]; Time 0 min,192.125
same,"oGTT measurement on day 23 (glucose), Mean",[2]; Time 15 min,433.5
same,"oGTT measurement on day 23 (glucose), Mean",[2]; Time 30 min,310.75
same,"oGTT measurement on day 23 (glucose), Mean",[2]; Time 60 min,230.75
same,"Liver fat area, Mean",[3]; H&E liver histology,28.34
same,"SMA positive area (% of fat-free area), Mean",[3]; liver SMA staining,6.942 % of fat-free area
same,"SMA positive area (normalized to nuclei amount), Mean",[3]; liver SMA staining,14.32
same,"Liver triglycerides, Mean",[3]; liver tissue,153.6
same,"Final organ weights, Gonadal Fat, Mean",[4],−10.56
same,"Final organ weights, Subq Fat, Mean",[4],−22.58
same,lean mass (in words),[5],lean mass loss
same,"fed insulin over time, Mean",[6]; Day 6,6.2175
same,"fed insulin over time, Mean",[6]; Day 13,2.296
same,"Fed glucose over time, Mean","[6]; Day 20, in mg/dL (unit assumed)",259.5
same,"fed insulin over time, Mean",[6]; Day −5 (before treatment),16.285
same,"Fed glucagon levels at day 20, Mean",[6]; day 20,4.106
same,"Plasma measurements - Liver panel, AST",[7],103.625
same,"Plasma measurements - Liver panel, Chol",[7],193.75
same,"Plasma measurements - Liver panel, NEFA",[7],0.5837
